Measurements: patent publication US6358885B1, “Substituted phenylheterocyclic herbicides” (Mississippi State University, priority 1992, dated 2002)

Tests used:
Experiment in all cases: Test F preemergence/postemergence greenhouse plant response rating 0 to 100
Details in all cases: 0 to 100 scale
[1] = system: sugar beet; assay type: in vivo, Beta vulgaris cv. ‘USl’
From the text: (§1) Compounds evaluated in this test were formulated in a non-phytoxic solvent and applied to the soil surface before plant seedlings emerged (preemergence application) and to plants that were in the one-to-four leaf stage (postemergence application). A sandy loam soil was used for the preemergence test while a mixture of sandy loam soil and greenhouse potting mix in a 60:40 ratio was used for the postemergence test. Test compounds were applied within approximately one day after planting seeds for the preemergence test. Plantings of these crops and weed species were adjusted to produce plants of appropriate size for the postemergence test. All plant species were grown using normal greenhouse practices. Crop and weed species include winter barley (Hordeum vulgare cv. ‘Igri’), blackgrass (Alopecurus myosuroides), chickweed (Stellaria media), downy brome (Bromus tectorum), field violet (Viola arvensis), galium (Galium aparine), green foxtail (Setaria viridis), kochia (Kochia scoparia), lambsquarters (Chenopodium album), speedwell (Veronica persica), rape (Brassica napus), ryegrass (Lolium multiflorum), sugar beet (Beta vulgaris cv. ‘USl’), sunflower (Helianthus annuus cv. ‘Russian Giant’), spring wheat (Triticum aestivum cv. ‘ERA’), winter wheat (Triticum aestivum cv. ‘Talent’), wild buckwheat (Polygonum convolvulus), wild mustard (Sinapis arvensis), wild oat (Avena fatua), and wild radish (Raphanus raphanistrum). Blackgrass, galium and wild oat were treated at two growth stages. […] Treated plants and untreated controls were maintained in a greenhouse for approximately 21 to 28 days, after which all treated plants were compared to untreated controls and visually evaluated. […] A dash response (-) means no test result.

[2] = system: downy brome; assay type: in vivo, Bromus tectorum
From the text: as §1

[3] = system: wild buckwheat; assay type: in vivo, Polygonum convolvulus
From the text: as §1

[4] = system: rape; assay type: in vivo, Brassica napus
From the text: as §1

[5] = system: wild mustard; assay type: in vivo, Sinapis arvensis
From the text: as §1

[6] = system: sunflower; assay type: in vivo, Helianthus annuus cv. ‘Russian Giant’
From the text: as §1

[7] = system: kochia; assay type: in vivo, Kochia scoparia
From the text: as §1

SMILES: C#CCOc1cc(-c2nn3c(c2Br)CCCC3)c(F)cc1Cl [Compound 26]
- Sugar beet plant response rating ([1]; POSTEMERGENCE, Rate 4 g/ha): 100
- Sugar beet plant response rating ([1]; POSTEMERGENCE, Rate 8 g/ha): 100
- Sugar beet plant response rating ([1]; POSTEMERGENCE, Rate 16 g/ha): 100
- Sugar beet plant response rating ([1]; POSTEMERGENCE, Rate 32 g/ha): 100
- Sugar beet plant response rating ([1]; POSTEMERGENCE, Rate 64 g/ha): 100
- Sugar beet plant response rating ([1]; POSTEMERGENCE, Rate 125 g/ha): 100
- Sugar beet plant response rating ([1]; POSTEMERGENCE, Rate 250 g/ha): 100
- Sugar beet plant response rating ([1]; PREEMERGENCE, Rate 4 g/ha): 0
- Sugar beet plant response rating ([1]; PREEMERGENCE, Rate 8 g/ha): 50
- Sugar beet plant response rating ([1]; PREEMERGENCE, Rate 16 g/ha): 60
- Sugar beet plant response rating ([1]; PREEMERGENCE, Rate 32 g/ha): 70
- Sugar beet plant response rating ([1]; PREEMERGENCE, Rate 64 g/ha): 100
- Sugar beet plant response rating ([1]; PREEMERGENCE, Rate 125 g/ha): 100
- Sugar beet plant response rating ([1]; PREEMERGENCE, Rate 250 g/ha): 100
- Downy brome plant response rating ([2]; POSTEMERGENCE, Rate 4 g/ha): 0
- Downy brome plant response rating ([2]; POSTEMERGENCE, Rate 8 g/ha): 0
- Downy brome plant response rating ([2]; POSTEMERGENCE, Rate 16 g/ha): 0
- Downy brome plant response rating ([2]; POSTEMERGENCE, Rate 32 g/ha): 0
- Downy brome plant response rating ([2]; POSTEMERGENCE, Rate 64 g/ha): 30
- Downy brome plant response rating ([2]; POSTEMERGENCE, Rate 125 g/ha): 50
- Downy brome plant response rating ([2]; POSTEMERGENCE, Rate 250 g/ha): 10
- Downy brome plant response rating ([2]; PREEMERGENCE, Rate 4 g/ha): 0
- Downy brome plant response rating ([2]; PREEMERGENCE, Rate 8 g/ha): 0
- Downy brome plant response rating ([2]; PREEMERGENCE, Rate 16 g/ha): 0
- Downy brome plant response rating ([2]; PREEMERGENCE, Rate 32 g/ha): 0
- Downy brome plant response rating ([2]; PREEMERGENCE, Rate 64 g/ha): 0
- Downy brome plant response rating ([2]; PREEMERGENCE, Rate 125 g/ha): 30
- Downy brome plant response rating ([2]; PREEMERGENCE, Rate 250 g/ha): 40
- Wild buckwheat plant response rating ([3]; POSTEMERGENCE, Rate 4 g/ha): 100
- Wild buckwheat plant response rating ([3]; POSTEMERGENCE, Rate 8 g/ha): 100
- Wild buckwheat plant response rating ([3]; POSTEMERGENCE, Rate 16 g/ha): 100
- Wild buckwheat plant response rating ([3]; POSTEMERGENCE, Rate 32 g/ha): 100
- Wild buckwheat plant response rating ([3]; POSTEMERGENCE, Rate 64 g/ha): 100
- Wild buckwheat plant response rating ([3]; POSTEMERGENCE, Rate 125 g/ha): 100
- Wild buckwheat plant response rating ([3]; POSTEMERGENCE, Rate 250 g/ha): 100
- Wild buckwheat plant response rating ([3]; PREEMERGENCE, Rate 4 g/ha): 0
- Wild buckwheat plant response rating ([3]; PREEMERGENCE, Rate 8 g/ha): 0
- Wild buckwheat plant response rating ([3]; PREEMERGENCE, Rate 16 g/ha): 30
- Wild buckwheat plant response rating ([3]; PREEMERGENCE, Rate 32 g/ha): 100
- Wild buckwheat plant response rating ([3]; PREEMERGENCE, Rate 64 g/ha): 100
- Wild buckwheat plant response rating ([3]; PREEMERGENCE, Rate 125 g/ha): 100
- Wild buckwheat plant response rating ([3]; PREEMERGENCE, Rate 250 g/ha): 100
- Rape plant response rating ([4]; POSTEMERGENCE, Rate 4 g/ha): 0
- Rape plant response rating ([4]; POSTEMERGENCE, Rate 8 g/ha): 0
- Rape plant response rating ([4]; POSTEMERGENCE, Rate 16 g/ha): 50
- Rape plant response rating ([4]; POSTEMERGENCE, Rate 32 g/ha): 100
- Rape plant response rating ([4]; POSTEMERGENCE, Rate 64 g/ha): 100
- Rape plant response rating ([4]; POSTEMERGENCE, Rate 125 g/ha): 100
- Rape plant response rating ([4]; POSTEMERGENCE, Rate 250 g/ha): 100
- Rape plant response rating ([4]; PREEMERGENCE, Rate 4 g/ha): 0
- Rape plant response rating ([4]; PREEMERGENCE, Rate 8 g/ha): 0
- Rape plant response rating ([4]; PREEMERGENCE, Rate 16 g/ha): 0
- Rape plant response rating ([4]; PREEMERGENCE, Rate 32 g/ha): 20
- Rape plant response rating ([4]; PREEMERGENCE, Rate 64 g/ha): 60
- Rape plant response rating ([4]; PREEMERGENCE, Rate 125 g/ha): 80
- Rape plant response rating ([4]; PREEMERGENCE, Rate 250 g/ha): 100
- Wild mustard plant response rating ([5]; POSTEMERGENCE, Rate 4 g/ha): 70
- Wild mustard plant response rating ([5]; POSTEMERGENCE, Rate 8 g/ha): 70
- Wild mustard plant response rating ([5]; POSTEMERGENCE, Rate 16 g/ha): 100
- Wild mustard plant response rating ([5]; POSTEMERGENCE, Rate 32 g/ha): 100
- Wild mustard plant response rating ([5]; POSTEMERGENCE, Rate 64 g/ha): 100
- Wild mustard plant response rating ([5]; POSTEMERGENCE, Rate 125 g/ha): 100
- Wild mustard plant response rating ([5]; POSTEMERGENCE, Rate 250 g/ha): 100
- Wild mustard plant response rating ([5]; PREEMERGENCE, Rate 4 g/ha): 0
- Wild mustard plant response rating ([5]; PREEMERGENCE, Rate 8 g/ha): 0
- Wild mustard plant response rating ([5]; PREEMERGENCE, Rate 16 g/ha): 40
- Wild mustard plant response rating ([5]; PREEMERGENCE, Rate 32 g/ha): 50
- Wild mustard plant response rating ([5]; PREEMERGENCE, Rate 64 g/ha): 80
- Wild mustard plant response rating ([5]; PREEMERGENCE, Rate 125 g/ha): 70
- Sunflower plant response rating ([6]; POSTEMERGENCE, Rate 4 g/ha): 0
- Sunflower plant response rating ([6]; POSTEMERGENCE, Rate 8 g/ha): 0
- Sunflower plant response rating ([6]; POSTEMERGENCE, Rate 16 g/ha): 0
- Sunflower plant response rating ([6]; POSTEMERGENCE, Rate 32 g/ha): 20
- Sunflower plant response rating ([6]; POSTEMERGENCE, Rate 64 g/ha): 60
- Sunflower plant response rating ([6]; POSTEMERGENCE, Rate 125 g/ha): 100
- Sunflower plant response rating ([6]; POSTEMERGENCE, Rate 250 g/ha): 60
- Sunflower plant response rating ([6]; PREEMERGENCE, Rate 4 g/ha): 0
- Sunflower plant response rating ([6]; PREEMERGENCE, Rate 8 g/ha): 0
- Sunflower plant response rating ([6]; PREEMERGENCE, Rate 16 g/ha): 0
- Sunflower plant response rating ([6]; PREEMERGENCE, Rate 32 g/ha): 0
- Sunflower plant response rating ([6]; PREEMERGENCE, Rate 64 g/ha): 0
- Sunflower plant response rating ([6]; PREEMERGENCE, Rate 125 g/ha): 10
- Sunflower plant response rating ([6]; PREEMERGENCE, Rate 250 g/ha): 60
- Kochia plant response rating ([7]; POSTEMERGENCE, Rate 4 g/ha): 100
- Kochia plant response rating ([7]; POSTEMERGENCE, Rate 8 g/ha): 100
- Kochia plant response rating ([7]; POSTEMERGENCE, Rate 16 g/ha): 100
- Kochia plant response rating ([7]; POSTEMERGENCE, Rate 32 g/ha): 100
- Kochia plant response rating ([7]; POSTEMERGENCE, Rate 64 g/ha): 100
- Kochia plant response rating ([7]; POSTEMERGENCE, Rate 125 g/ha): 100
- Kochia plant response rating ([7]; POSTEMERGENCE, Rate 250 g/ha): 100
- Kochia plant response rating ([7]; PREEMERGENCE, Rate 4 g/ha): 0
- Kochia plant response rating ([7]; PREEMERGENCE, Rate 8 g/ha): 0
- Kochia plant response rating ([7]; PREEMERGENCE, Rate 16 g/ha): 80
- Kochia plant response rating ([7]; PREEMERGENCE, Rate 32 g/ha): 80
- Kochia plant response rating ([7]; PREEMERGENCE, Rate 64 g/ha): 100
- Kochia plant response rating ([7]; PREEMERGENCE, Rate 125 g/ha): 100
